Experimental data as given in ChEMBL document CHEMBL3885861, “Open TG-GATES”.

Organism: Rattus norvegicus
Assay: Open TG-GATES - Regimen: Single
Format: toxicity, organism-based, Sprague-Dawley
Set-up: regimen Single, gender Male, age 6 weeks
Settings: in vivo, po, 0 mg/kg, route gavage, dose level Control; for APTT / Bas / Eos / Fbg / Hb / Ht / Lym / MCH / MCHC / MCV / Mono / Neu / PT / Plat / RBC / Ret / WBC: tissue Blood; for KIDNEY_L / KIDNEY_R / KIDNEY_TOTAL: tissue Kidney; for LIVER: tissue Liver; for A/G / ALP / ALT / AST / BUN / CRE / Ca / Cl / DBIL / GLC / IP / K / LDH / Na / PL / RALB / TBIL / TC / TG / TP / gamma-GTP: tissue Plasma

## Nc1ccc(Cc2ccc(N)cc2)cc1
3 h
  TERMINAL_BW: 209.4 g
  APTT: 13.9 s
  Bas: 0%
  Eos: 0.6%
  Fbg: 263.2 mg/dL
  Hb: 12.7 g/dL
  Ht: 37.3%
  Lym: 73.6%
  MCH: 21.8 pg
  MCHC: 34.1%
  MCV: 63.9 fL
  Mono: 3%
  Neu: 21.2%
  PT: 11.7 s
  Plat: 145.5 x10_4/uL
  RBC: 584.2 x10_4/ul
  Ret: 9.5%
  WBC: 100 x10_2/uL
  KIDNEY_L: 0.9 g
  KIDNEY_R: 0.9 g
  KIDNEY_TOTAL: 1.8 g
  LIVER: 9.5 g
  A/G: 0.8
  ALP: 1787.8 IU/L
  ALT: 46.8 IU/L
  AST: 90.8 IU/L
  BUN: 9.8 mg/dL
  CRE: 0.2 mg/dL
  Ca: 11 mg/dL
  Cl: 106.8 meq/L
  DBIL: 0.024 mg/dL
  GLC: 158.2 mg/dL
  IP: 9.1 mg/dL
  K: 3.7 meq/L
  LDH: 72.6 IU/L
  Na: 141.2 meq/L
  PL: 149.8 mg/dL
  RALB: 2.5 g/dL
  TBIL: 0.056 mg/dL
  TC: 76.8 mg/dL
  TG: 128.2 mg/dL
  TP: 5.6 g/dL
  gamma-GTP: 1 IU/L
6 h
  TERMINAL_BW: 206.4 g
  APTT: 14.9 s
  Bas: 0%
  Eos: 1%
  Fbg: 279.2 mg/dL
  Hb: 13 g/dL
  Ht: 38%
  Lym: 74.2%
  MCH: 21.4 pg
  MCHC: 34.1%
  MCV: 62.8 fL
  Mono: 2.6%
  Neu: 21.6%
  PT: 11.6 s
  Plat: 134.9 x10_4/uL
  RBC: 606 x10_4/ul
  Ret: 8%
  WBC: 104.9 x10_2/uL
  KIDNEY_L: 0.9 g
  KIDNEY_R: 0.9 g
  KIDNEY_TOTAL: 1.8 g
  LIVER: 8.5 g
  A/G: 0.8
  ALP: 1552.8 IU/L
  ALT: 35.2 IU/L
  AST: 75 IU/L
  BUN: 9 mg/dL
  CRE: 0.2 mg/dL
  Ca: 10.8 mg/dL
  Cl: 107.4 meq/L
  DBIL: 0.024 mg/dL
  GLC: 165 mg/dL
  IP: 10 mg/dL
  K: 4.2 meq/L
  LDH: 67 IU/L
  Na: 141.8 meq/L
  PL: 131.6 mg/dL
  RALB: 2.5 g/dL
  TBIL: 0.062 mg/dL
  TC: 71.2 mg/dL
  TG: 59.4 mg/dL
  TP: 5.7 g/dL
  gamma-GTP: 1.4 IU/L
9 h
  TERMINAL_BW: 204.2 g
  APTT: 14.5 s
  Bas: 0%
  Eos: 0.8%
  Fbg: 277 mg/dL
  Hb: 12.7 g/dL
  Ht: 37.3%
  Lym: 73.4%
  MCH: 21.1 pg
  MCHC: 34.2%
  MCV: 61.8 fL
  Mono: 1.8%
  Neu: 23.6%
  PT: 11.7 s
  Plat: 137.5 x10_4/uL
  RBC: 603.8 x10_4/ul
  Ret: 8%
  WBC: 65.4 x10_2/uL
  KIDNEY_L: 0.9 g
  KIDNEY_R: 0.9 g
  KIDNEY_TOTAL: 1.7 g
  LIVER: 7.8 g
  A/G: 0.8
  ALP: 1332.6 IU/L
  ALT: 27.4 IU/L
  AST: 64.4 IU/L
  BUN: 8.8 mg/dL
  CRE: 0.2 mg/dL
  Ca: 10.5 mg/dL
  Cl: 106.4 meq/L
  DBIL: 0.018 mg/dL
  GLC: 174.2 mg/dL
  IP: 10.5 mg/dL
  K: 4 meq/L
  LDH: 58.2 IU/L
  Na: 143 meq/L
  PL: 129.6 mg/dL
  RALB: 2.5 g/dL
  TBIL: 0.064 mg/dL
  TC: 77.8 mg/dL
  TG: 42.4 mg/dL
  TP: 5.6 g/dL
  gamma-GTP: 1 IU/L
24 h
  TERMINAL_BW: 219.7 g
  APTT: 12.6 s
  Bas: 0%
  Eos: 1%
  Fbg: 258.8 mg/dL
  Hb: 13.1 g/dL
  Ht: 37.9%
  Lym: 73.2%
  MCH: 21.2 pg
  MCHC: 34.5%
  MCV: 61.6 fL
  Mono: 1.8%
  Neu: 23.2%
  PT: 11.4 s
  Plat: 146.9 x10_4/uL
  RBC: 616.8 x10_4/ul
  Ret: 6.8%
  WBC: 88.9 x10_2/uL
  KIDNEY_L: 0.9 g
  KIDNEY_R: 0.9 g
  KIDNEY_TOTAL: 1.9 g
  LIVER: 9.5 g
  A/G: 0.9
  ALP: 1942.2 IU/L
  ALT: 38.6 IU/L
  AST: 74 IU/L
  BUN: 14.6 mg/dL
  CRE: 0.2 mg/dL
  Ca: 10.9 mg/dL
  Cl: 106.4 meq/L
  DBIL: 0.02 mg/dL
  GLC: 167 mg/dL
  IP: 7.7 mg/dL
  K: 3.9 meq/L
  LDH: 49.2 IU/L
  Na: 143.2 meq/L
  PL: 135.4 mg/dL
  RALB: 2.6 g/dL
  TBIL: 0.044 mg/dL
  TC: 72 mg/dL
  TG: 89.6 mg/dL
  TP: 5.5 g/dL
  gamma-GTP: 1 IU/L
